Source: patent US7671077B2, “Neuroprotective small organic molecules, compositions and uses related thereto” (priority 2004, dated 2010)
Entries after “also recorded” stand apart in the source; their conditions may differ. Values belong to the molecule of their own block, whether it stands above or below them.

Key:
[1] = system: islet-1^+ motoneurons; assay: islet-1 immunostaining, motoneuron count in midbrain cultures; type: cell-based, rat; settings: 2.5 μM; DIV 1, 2 and 3
Description: (§1) Primary midbrain cultures were prepared from rat embryo ventral mesencephalon as described previously by Lin et al (1994). In brief, rostral mesencephalic tegmentum of embryonic day 16 rat embryos was collected in DMEM/F12 (Hyclone SH30023.01) containing 2 mM glutamine on ice, The tissue was treated with 0.1% trypsin in Hanks' balanced salt solution (HBSS, Gibco 14175-095) for 15 min at 37° C. and dissociated mechanically by mild trituration with a fire-polished glass pipet in growth medium plus 2% heat-inactivated fetal bovine serum (FBS). […]
(§2) The primary antibodies were: anti-TH monoclonal (1:400, Boehringer-Mannheim); anti-GFAP polyclonal (1:200, DAKO); anti-NSE polyclonal (1:2000, Polysciences Inc.); anti-tryptophan hydroxylase polyclonal (TPH) (1:500, Eugene Tech) and anti-islet-1 monoclonal (1:100, Developmental Studies Hybridoma Bank). […] Process-bearing TH-positive cells were counted at 100× magnification in consecutive fields covering the whole 16-mm-diameter culture well. GFAP-positive cells were counted in half the culture well. NSE-positive cells were counted in 3 photographed fields.

[2] = system: midbrain dopaminergic neurons; assay: Dopamine (DA) uptake assay in primary midbrain cultures; type: cell-based, rat; settings: for activity at 2.5 µM: compound concentration 2.5 μM; for activity at 0.6 µM: compound concentration 0.6 μM
Description: (§3) Primary midbrain cultures were prepared from rat embryo ventral mesencephalon as described previously by Lin et al (1994). In brief, rostral mesencephalic tegmentum of embryonic day 16 rat embryos was collected in DMEM/F12 (Hyclone SH30023.01) containing 2 mM glutamine on ice, The tissue was treated with 0.1% trypsin in Hanks' balanced salt solution (HBSS, Gibco 14175-095) for 15 min at 37° C. and dissociated mechanically by mild trituration with a fire-polished glass pipet in growth medium plus 2% heat-inactivated fetal bovine serum (FBS). The growth medium consisted of equal volumes of Dulbecco's minimal essential medium DMEM (Gibco 12100-046) and HAM's F12 nutrient mixture (Gibco 21700-075) supplemented with 33 mM glucose, 13 mM sodium bicarbonate, 5 mM HEPES, 2 mM glutamine, 25 μg/ml insulin, 100 μg/ml transferrin, 60 μM putrescine, 20 nM progesterone, 30 nM sodium selenite, 5 U/ml penicillin G and 5 μg/ml streptomycin. 24-well tissue culture plate was coated by adding 15 μg/ml poly-1-ornithine hydrobromide solution at 0.5 ml/well, incubated at room temperature for 1 hr. The coating solution was removed and the well washed 3 times with distilled water and one wash with HBSS. The dissociated cells were plated onto polyornithine-coated wells at 250,000-350,000 trypan blue-excluding viable cells per well in 500 μl of above medium containing 1% FBS. After 3 h when most of the cells had adhered to the bottom of the well, the medium was replaced with 500 μl of fresh medium without FBS. A serial dilution of the sample to be assayed for trophic activity was added to each well in duplicate at the time of medium change or within 24 h thereafter. Unless otherwise stated, cultures were incubated at 37° C. without any further medium change up to 7 days. Primary hindbrain cultures were prepared as described for the midbrain cultures except that the rostral raphe region (instead of the rostral mesencephalon) was dissected and trypsinized for 20 (instead of 15) min.
[^3H]DA uptake was measured in cultures at day 7, and all the solutions were maintained at 37° C. The growth medium was removed, and the cultures were rinsed twice with 0.25 ml of uptake buffer, which consists of HBSS (Gibco 11201-092) supplemented with 28 mM glucose, 15 mM HEPES, 1 mM ascorbic acid (an antioxidant), and […] pargyline (a monoamine oxidase inhibitor). The cultures were then incubated with 0.25 ml of fresh uptake buffer containing 50 nM [^3H]DA (NEN/DuPont) for 20 min at 37° C. [^3H]DA uptake was stopped by removing the incubation mixture, and cells were then washed twice with 0.5 ml of the uptake buffer at room temperature. To release [^3H]DA from the cells, the cultures were lysed with 0.2 ml of 0.1 N NaOH for 1 h at room temperature, the lysate was then added to 1 ml of Microscint-20 (Packard 6013621), and counted for radioactivity in a microplate scintillation counter (Packard TopCount, NXT). Background values were obtained by adding to the uptake buffer 0.5 mM GBR-12909, a specific inhibitor of the high-affinity uptake pump of the dopaminergic neurons, and were usually <5% of the ^3H uptake in untreated control cultures. Forskolin (Fk, 25 μM) was employed as a positive control.

[3] = system: serotonergic neurons; assay: Serotonin (5-HT) uptake assay in midbrain cultures; type: cell-based, rat; settings: midbrain culture, DIV 8, concentration range that increased DA uptake
Description: as §3, with “After 3 h when most of the cells had adhered to the bottom of the well, the medium was replaced with 500 μl of fresh medium without FBS. A serial dilution of the sample to be assayed for trophic activity was added to each well in duplicate at the time of medium change or within 24 h thereafter. Unless otherwise stated, cultures were incubated at 37° C. without any further medium change up to 7 days. Primary hindbrain cultures were prepared as described for the midbrain cultures except that the rostral raphe region (instead of the rostral mesencephalon) was dissected and trypsinized for 20 (instead of 15) min.” left out

[4] = system: TH^+ cells; assay: Staining for apoptotic DA neurons (TH / Hoechst 33258); type: cell-based, rat; settings: 2.5 μM added at plating; DIV 13
Description: as §1
To measure the percent of DA neurons undergoing apoptosis after different treatments, DIV-13 cultures (which were medium changed twice on DIV 5 and 9) were first stained with an anti-TH antibody and with FITC-conjugated goat anti-mouse secondary antibody (1:200, Jackson Lab) for 1 h at room temperature to label DA neurons. […] Cells were viewed under an inverted fluorescence microscope (Olympus) equipped with appropriate filters. Healthy and apoptotic TH^+ cells TH^+ cell numbers were counted in the entire area of each well by an observer who is blinded to the treatment.

[5] = system: GABA-containing neurons; assay: GABA uptake assay in midbrain cultures; type: cell-based, rat; settings: midbrain culture, DIV 8, concentration range that increased DA uptake
Description: as §3, with “After 3 h when most of the cells had adhered to the bottom of the well, the medium was replaced with 500 μl of fresh medium without FBS. A serial dilution of the sample to be assayed for trophic activity was added to each well in duplicate at the time of medium change or within 24 h thereafter. Unless otherwise stated, cultures were incubated at 37° C. without any further medium change up to 7 days. Primary hindbrain cultures were prepared as described for the midbrain cultures except that the rostral raphe region (instead of the rostral mesencephalon) was dissected and trypsinized for 20 (instead of 15) min.” left out

[6] = system: serotonergic neurons of hindbrain culture; assay: Serotonin (5-HT) uptake assay in primary hindbrain cultures; type: cell-based, rat
[7] = system: TH-positive neurons; assay: TH immunostaining and count of TH-positive neurons in midbrain cultures; type: cell-based, rat
Description: as §1, §2

[8] = system: TH^+ neurons; assay: MPP^+ induced neurotoxicity in midbrain cultures; type: cell-based, rat; settings: 2 μM MPP^+ for 36 h; 2.5 μM compound; control cultures lost 48%
Description: FIG. 34 depicts mechanism of compound A effect in midbrain cultures. 2.5 μM compound A was added at the time of plating. (A) Compound A reduces the rate of apoptosis of TH-positive cells. *p<0.05 versus Con, Student's t test. (B) Compound A protects TH-positive cells from MPP^+ induced neurotoxicity. Cultures at DIV 4 were treated with 2 μM MPP^+ (open bars) for 36 hrs, and processed for TH staining. *p<0.05 versus corresponding cultures not treated with MPP^+ (solid bars). #p<0.05 versus corresponding cultures without Compound A, Student's t test. Data represent averages (n=3) with SD shown in error bars.
Primary midbrain cultures were prepared from rat embryo ventral mesencephalon as described previously by Lin et al (1994). […]
as §2, with “fields. […]” for “fields.”

[9] = system: TPH^+ cells; assay: TPH immunostaining in primary hindbrain cultures; type: cell-based, rat; settings: hindbrain culture, DIV 13
[10] = system: GFAP-positive cells; assay: GFAP immunostaining, astrocyte count in midbrain cultures; type: cell-based, rat; settings: midbrain culture, DIV 7
Description: as §1, §2

[11] = system: NSE-positive cells; assay: NSE immunostaining, total neuron count in midbrain cultures; type: cell-based, rat; settings: 2.5 μM; DIV 0, 5 or 7; versus untreated
Description: as §1, §2

[12] = system: midbrain dopaminergic neurons; settings: Lin et al. 1993, 1994; cited from earlier work
[13] = Rattus norvegicus, Neuron, midbrain culture, read-out: DA uptake % of control

tyrosine hydroxylase (TH) immunoreactivity ([7]; mesencephalic cultures): upregulated
Molecule: O=C(/C=C/c1ccccc1Cl)Nc1ccc(S(=O)(=O)Nc2nccs2)cc1 [Compound A]
number of islet-1^+ motoneurons [1]: 115-150 % of control
DA uptake on conjoint treatment with GDNF ([2]; 2.5 μM compound A added to a maximally effective concentration of GDNF): additive effect; also recorded: increased DA uptake above that reached by either GDNF or compound A alone; also recorded: at least as potent as that of forskolin
activity at 2.5 µM [2, 13]: 240%
Emax ([2]; Rattus norvegicus, Neuron, DIV 6, varied between different experiments, read-out: maximal stimulation of DA uptake): 180 to 280%
concentration of maximal effect on DA uptake ([2]; dose-dependent effect, FIG. 32A, 7 DIV): around 2.5 μM
concentration at which the compound was toxic and decreased DA uptake ([2]; midbrain culture): above 10 μM
stimulation of DA uptake (in words) ([2]; midbrain culture, 7 DIV): stimulates dopamine (DA) uptake in a dose-dependent manner
serotonin (5-HT) uptake [3]: does not lead to an increase in GABA or 5-HT uptake; also recorded: Neither GABA (FIG. 33C) nor serotonin (FIG. 33D) uptake was significantly affected
serotonin (5-HT) uptake ([3]; listed as CUR-162590): little, if any, effect
reduction of the rate of apoptosis of TH^+ cells [4]: about 50%
GABA uptake [5]: does not lead to an increase in GABA or 5-HT uptake; also recorded: Neither GABA (FIG. 33C) nor serotonin (FIG. 33D) uptake was significantly affected
GABA uptake ([5]; listed as CUR-162590): little, if any, effect
cytotoxicity on the hindbrain culture (inhibition of serotonin uptake) ([6]; 10 μM): showed cytotoxicity on the hindbrain culture
serotonin uptake in hindbrain culture ([6]; DIV 8, concentrations necessary for increasing dopamine uptake in midbrain culture): does not change either the number of TPH^+ cells nor the amount of serotonin uptake in hindbrain cultures; also recorded: nor did it increase serotonin uptake in the hindbrain culture
number of TH positive neurons (dopaminergic neuron survival) ([7]; 2.5-5 μM added once at the time of plating, day 7 or day 12): promotes survival of TH^+ neurons; also recorded: about twice as many DA neurons
loss of TH^+ neurons after MPP^+ [8]: 20%
survival / number of TPH^+ neurons [9]: does not change either the number of TPH^+ cells nor the amount of serotonin uptake in hindbrain cultures; also recorded: did not promote the survival of neurons immunoreactive for the key serotonin-synthesizing enzyme TPH
GFAP-positive cell numbers [10]: does not affect GFAP^+ cell number; also recorded: not affected
NSE-positive cell numbers [11]: does not increase total number of NSE^+ cells; also recorded: indistinguishable from the non-treated control wells

Molecule: COc1ccc(/C=C2\SC(=O)N(CCC(=O)Nc3ccc(S(=O)(=O)Nc4nccs4)cc3)C2=O)cc1 [R′]
activity at 2.5 µM [2, 13]: 155%

Molecule: O=C(Nc1ccc(S(=O)(=O)Nc2cccs2)cc1)c1ccc2ccccc2c1 [C″]
activity at 2.5 µM [2, 13]: 200%

Molecule: COc1ccc(/C=C/C(=O)Nc2ccc(S(=O)(=O)Nc3nccs3)cc2)c(OC)c1 [Z′′′′]
activity at 1.25 µM ([2]; Rattus norvegicus, Neuron, compound concentration 1.25 μM, midbrain culture, read-out: DA uptake % of control): 170%

Molecule: O=C(/C=C/c1cccc(O)c1)Nc1ccc(S(=O)(=O)Nc2ccccn2)cc1 [M′′′]
activity at 5 µM ([2]; Rattus norvegicus, Neuron, compound concentration 5 μM, midbrain culture, read-out: DA uptake % of control): 170%

Molecule: O=C(/C=C/c1ccccc1)Nc1ccc(S(=O)(=O)N2CCCCC2)cc1 [K′]
activity at 0.6 µM [2, 13]: 125%
activity at 2.5 µM [2, 13]: 320%

Molecule: O=C(Nc1ccc(S(=O)(=O)Nc2nccs2)cc1)c1sc2ccccc2c1Cl [D′]
activity at 0.6 µM [2, 13]: 170%

B1: GDNF: glial cell line-derived neurotrophic factor (protein, UniProt P39905 78-211, looked up)
Glial cell line-derived …: SPDKQMAVLPRRERNRQAAAANPENSRGKGRRGQRGKNRGCVLTAIHLNVTDLGLGYETKEELIFRYCSGSCDAAETTYDKILKNLSRNRRLVSDKVGQACCRPIAFDDDLSFLDDNLVYHILRKHSAKRCGCI
concentration at which the effect on DA uptake plateaus [12]: around 1 ng/ml
